Results as given in BindingDB's records for doi:10.1021/jm000048n (Washington State University, 2000).

What was measured:
Cytochrome P450 2C9 = Cytochrome P450 2C9 (Homo sapiens, UniProt P11712); experiment: (§1) Binding affinity was measured on Cytochrome P450 2C9
[1] = biological target: {'v': 'CYP2C9', 'o': 'p', 'q': 'Cytochrome P450 2C9 (single_protein)'} (Homo sapiens, UniProt P11712); experiment: as §1
Chain of {'v': 'CYP2C9', 'o': 'p', 'q': 'Cytochrome P450 2C9 (single_protein)'} (P11712 whole entry): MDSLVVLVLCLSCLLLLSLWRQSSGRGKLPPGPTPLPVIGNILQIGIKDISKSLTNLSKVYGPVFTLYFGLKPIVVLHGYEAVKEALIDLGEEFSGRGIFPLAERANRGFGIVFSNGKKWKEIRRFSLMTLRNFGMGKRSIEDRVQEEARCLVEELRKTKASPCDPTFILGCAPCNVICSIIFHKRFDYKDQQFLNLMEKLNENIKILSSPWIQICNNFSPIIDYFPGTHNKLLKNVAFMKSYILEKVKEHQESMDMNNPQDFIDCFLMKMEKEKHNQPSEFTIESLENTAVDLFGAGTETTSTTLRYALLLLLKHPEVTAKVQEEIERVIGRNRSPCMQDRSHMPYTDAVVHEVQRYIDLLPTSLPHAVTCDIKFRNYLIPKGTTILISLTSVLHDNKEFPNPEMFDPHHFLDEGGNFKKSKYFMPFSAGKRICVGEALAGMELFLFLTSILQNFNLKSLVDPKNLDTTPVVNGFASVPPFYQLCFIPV

Chain of Cytochrome P450 2C9 (P11712 whole entry): as above

Question: With `CC[C@H](c1ccccc1)c1c(O)c2ccccc2oc1=O` as the compound, how does the Ki (Cytochrome P450 2C9) read?
Answer: 500 nM

Question: And the Ki [1]?
Answer: 500 nM
